Assay results from the NIST ThermoML archive (doi:10.1016/j.jct.2016.08.010).

Legend:
[1] = excess molar enthalpy (molar enthalpy of mixing); xn = mol fraction of the nth substance listed; settings: 298.15 K, 100 kPa, Liquid, Power-compensation calorimetry
[2] = molar heat capacity at constant pressure; xn = mol fraction of the nth substance listed; settings: 100 kPa, Liquid, Small sample (50 mg) DSC

CCn1cc[n+](C)c1.F[B-](F)(F)F [1-ethyl-3-methylimidazolium tetrafluoroborate] + CCCCn1cc[n+](C)c1.F[B-](F)(F)F
[1]
Settings | excess molar enthalpy [kcal/mol]
x2 = 0.0714 | 0.00215
x2 = 0.1234 | 0.00387
x2 = 0.1781 | 0.00574
x2 = 0.2396 | 0.00786
x2 = 0.2944 | 0.00946
x2 = 0.3468 | 0.0108
x2 = 0.3972 | 0.0117
x2 = 0.4428 | 0.0123
x2 = 0.4859 | 0.0126
x2 = 0.5374 | 0.0126
x2 = 0.5884 | 0.0122
x2 = 0.6291 | 0.0117
x2 = 0.6724 | 0.0109
x2 = 0.7172 | 0.00975
x2 = 0.7639 | 0.00839
x2 = 0.8109 | 0.00684
x2 = 0.8642 | 0.00485
x2 = 0.9077 | 0.00327

molar heat capacity at constant pressure [J/K/mol], [2]
Settings | 293.15 K | 298.15 K | 303.15 K | 308.15 K
x2 = 0 | 303.2 | 304.53 | 306.29 | 308.03
x2 = 0.0731 | 314.45 | 315.32 | 316.58 | 318.02
x2 = 0.1164 | 321.05 | 322.12 | 323.51 | 324.76
x2 = 0.1692 | 328.75 | 329.72 | 330.85 | 332.16
x2 = 0.2144 | 335.06 | 336 | 337.17 | 338.49
x2 = 0.2672 | 341.92 | 342.87 | 344.05 | 345.42
x2 = 0.3259 | 348.89 | 349.85 | 351.13 | 352.54
x2 = 0.3827 | 354.65 | 355.77 | 357.13 | 358.55
x2 = 0.4365 | 359.23 | 360.56 | 362.07 | 363.61
x2 = 0.4722 | 361.72 | 363.22 | 364.73 | 366.24
x2 = 0.535 | 365.27 | 367.01 | 368.62 | 370.2
x2 = 0.5968 | 367.7 | 369.31 | 370.93 | 372.58
x2 = 0.6379 | 368.54 | 370.31 | 371.89 | 373.53
x2 = 0.6857 | 369.02 | 370.78 | 372.53 | 374.23
x2 = 0.7446 | 369.21 | 371.07 | 372.68 | 374.41
x2 = 0.7732 | 368.94 | 370.9 | 372.67 | 374.4
x2 = 0.8293 | 368.08 | 370.08 | 371.76 | 373.59
x2 = 0.876 | 367.14 | 369.26 | 371.02 | 372.8
x2 = 0.9253 | 365.44 | 367.47 | 369.72 | 371.83

CCCCn1cc[n+](C)c1C.F[B-](F)(F)F [1-butyl-2,3-dimethylimidazolium tetrafluoroborate] + CCCCn1cc[n+](C)c1.F[B-](F)(F)F
[1]
Settings | excess molar enthalpy [kcal/mol]
x1 = 0.0861 | 0.00327
x1 = 0.1386 | 0.00523
x1 = 0.1972 | 0.00734
x1 = 0.2455 | 0.00889
x1 = 0.2945 | 0.0104
x1 = 0.3428 | 0.0114
x1 = 0.3917 | 0.0121
x1 = 0.4457 | 0.0125
x1 = 0.5019 | 0.0125
x1 = 0.5637 | 0.0117
x1 = 0.6097 | 0.0109
x1 = 0.6637 | 0.00963
x1 = 0.7076 | 0.00858
x1 = 0.7611 | 0.00691
x1 = 0.8042 | 0.00564
x1 = 0.8462 | 0.00437
x1 = 0.8827 | 0.00325
x1 = 0.9144 | 0.0023

molar heat capacity at constant pressure [J/K/mol], [2]
Settings | 293.15 K | 298.15 K | 303.15 K | 308.15 K
x1 = 0.0944 | 372.33 | 374.56 | 376.3 | 378.14
x1 = 0.1139 | 374.5 | 376.61 | 378.27 | 379.93
x1 = 0.1685 | 380.51 | 382.42 | 383.87 | 385.43
x1 = 0.1964 | 383.54 | 385.39 | 386.73 | 388.21
x1 = 0.2219 | 386.3 | 388.04 | 389.27 | 390.78
x1 = 0.2761 | 391.8 | 393.45 | 394.59 | 396.01
x1 = 0.325 | 396.42 | 397.97 | 399.09 | 400.41
x1 = 0.3616 | 399.58 | 401.14 | 402.27 | 403.61
x1 = 0.4192 | 404.04 | 405.54 | 406.68 | 408.07
x1 = 0.4769 | 407.66 | 409.23 | 410.42 | 411.83
x1 = 0.5228 | 410.01 | 411.58 | 412.83 | 414.29
x1 = 0.5749 | 412.12 | 413.7 | 415.09 | 416.68
x1 = 0.6325 | 413.66 | 415.36 | 416.86 | 418.94
x1 = 0.6877 | 414.45 | 416.32 | 418.24 | 420.31
x1 = 0.7386 | 414.74 | 416.82 | 419.32 | 421.29
x1 = 0.7922 | 414.58 | 416.97 | 419.35 | 421.84
x1 = 0.8479 | 414.36 | 416.75 | 419.41 | 422.19
x1 = 0.8832 | 413.81 | 416.53 | 419.16 | 421.93
x1 = 1 | 413.03 | 416.01 | 418.84 | 421.7

CCCCn1cc[n+](C)c1C.F[B-](F)(F)F [1-butyl-2,3-dimethylimidazolium tetrafluoroborate] + CCn1cc[n+](C)c1.F[B-](F)(F)F
[1]
Settings | excess molar enthalpy [kcal/mol]
x1 = 0.0907 | -0.0636
x1 = 0.1357 | -0.0796
x1 = 0.1849 | -0.088
x1 = 0.2377 | -0.0856
x1 = 0.2839 | -0.0762
x1 = 0.3341 | -0.0593
x1 = 0.3729 | -0.0437
x1 = 0.4351 | -0.0139
x1 = 0.4972 | 0.0184
x1 = 0.5483 | 0.0452
x1 = 0.5967 | 0.0684
x1 = 0.6417 | 0.0884
x1 = 0.6978 | 0.105
x1 = 0.7424 | 0.114
x1 = 0.7909 | 0.117
x1 = 0.8345 | 0.109
x1 = 0.8758 | 0.0958
x1 = 0.9035 | 0.0829

molar heat capacity at constant pressure [J/K/mol], [2]
Settings | 293.15 K | 298.15 K | 303.15 K | 308.15 K
x1 = 0.1129 | 319.45 | 321.79 | 324.44 | 327.05
x1 = 0.1657 | 325.94 | 328.52 | 331.39 | 334.26
x1 = 0.2189 | 331.85 | 334.58 | 337.61 | 340.64
x1 = 0.2743 | 337.42 | 340.23 | 343.39 | 346.51
x1 = 0.3272 | 342.26 | 345.15 | 348.38 | 351.58
x1 = 0.3729 | 346.15 | 349.09 | 352.37 | 355.65
x1 = 0.4382 | 351.36 | 354.4 | 357.74 | 361.09
x1 = 0.4917 | 355.44 | 358.6 | 362.01 | 365.39
x1 = 0.5242 | 357.91 | 361.14 | 364.6 | 368.01
x1 = 0.5687 | 361.32 | 364.66 | 368.19 | 371.64
x1 = 0.6042 | 364.11 | 367.55 | 371.14 | 374.62
x1 = 0.6468 | 367.63 | 371.19 | 374.82 | 378.34
x1 = 0.6931 | 371.7 | 375.37 | 379.1 | 382.63
x1 = 0.7244 | 374.62 | 378.4 | 382.14 | 385.71
x1 = 0.785 | 380.94 | 384.83 | 388.57 | 392.14
x1 = 0.8149 | 384.44 | 388.32 | 392.05 | 395.57
x1 = 0.8633 | 390.63 | 394.43 | 398.1 | 401.56
x1 = 0.9107 | 397.48 | 401.14 | 404.65 | 407.96
x1 = 1 | 413.03 | 416.01 | 418.84 | 421.7
